This is an account of results in ChEMBL document CHEMBL5154911, “Palmatine Derivatives as Potential Antiplatelet Aggregation Agents via Protein Kinase G/Vasodilator-Stimulated Phosphoprotein and Phosphatidylinositol 3-Kinase/Akt Phosphorylation” (J Med Chem, 2022).

Data set [1] in a line: Metabolic stability in Sprague-Dawley rat liver microsomes assessed as microsomal intrinsic clearance at 1 uM incubated upto 60 min in presence of NADPH by LC-MS/MS analysis. The format is ADME, Microsome. The note with it: read-out: CLH. On the technique in general: Liver microsomes are vesicles of endoplasmic reticulum, rich in cytochrome P450 enzymes.
Data set [2] has as its system Platelet. Put plainly: Inhibition of ADP-induced Akt activation in C57BL/6J mouse platelets assessed as reduction in phosphorylation Akt level at Ser473 at 100 mg/kg, po measured after 2 weeks by western blot analysis. Type of data set: organism-based. On the technique in general: In western blotting, separated proteins are transferred to a membrane and probed.
A short description of data set [3]: Metabolic stability in human liver microsomes assessed as compound remaining at 1 uM measured after 60 mins in presence of NADPH by LC-MS/MS analysis. The format is ADME, Microsome. The note with it: read-out: Stability.
The nature of data set [4]: Metabolic stability in CD-1 mouse liver microsomes assessed as microsomal intrinsic clearance at 1 uM incubated upto 60 min in presence of NADPH by LC-MS/MS analysis. The format is ADME, Microsome. As to conditions: read-out: CLH.
A short description of data set [5]: Metabolic stability in human liver microsomes assessed as liver intrinsic clearance at 1 uM incubated upto 60 min in presence of NADPH by LC-MS/MS analysis. The format is ADME, Microsome. The note with it: 1 h.
The nature of data set [6]: Antiplatelet activity against ADP-induced C57BL/6J mouse platelet aggregation assessed as inhibition of platelet aggregation at 10 uM preincubated for 10 mins followed by ADP addition relative to control. Further details: scale not given: the % may be the effect or the level left. Type of data set: functional.
The test system of data set [7] is Mus musculus. Put plainly: Antithrombotic activity in BALB/c mouse model of carrageenan-induced thrombus formation assessed as inhibition of thrombosis rate in tail at 100 mg/kg, iv measured after 14 days. As to conditions: time 14.0 day. Type of data set: functional, organism-based.
Data set [8] can be described thus: Acute toxicity in Kunming mouse assessed as effect on creatine at 250 to 1000 mg/kg, po measured after 14 days. The format is organism-based. As to conditions: in vivo, 336 h, dose 250-1000 mg/kg, time 14 day.
Data set [9] can be described thus: Acute toxicity in po dosed Kunming mouse assessed as lethal dose measured after 14 days. The format is organism-based. As to conditions: in vivo, time 14 day.
The nature of data set [10]: Metabolic stability in human liver microsomes assessed as microsomal intrinsic clearance at 1 uM incubated upto 60 min in presence of NADPH by LC-MS/MS analysis. As to conditions: read-out: CLH. The format is ADME, Microsome.
Data set [11] has as its system Platelet. Put plainly: Antiplatelet activity against ADP-induced C57BL/6J mouse platelet aggregation assessed as increase in VASP phosphorylation level at 0.5 to 20 uM by western blotting analysis. As to conditions: dose 0.5-20 µM. The format is functional, cell-based.
Data set [12] concerns Mus musculus. Put plainly: Antithrombotic activity in BALB/c mouse model of carrageenan-induced thrombus formation assessed as reduced thrombus area in tail at 100 mg/kg, iv measured after 14 days by H and E staining based assay. The note with it: time 14.0 day. The format is functional, organism-based.
The nature of data set [13]: Antiplatelet activity against ADP-induced C57BL/6J mouse platelet aggregation assessed as maximal aggregration rate at 10 uM preincubated for 10 mins followed by ADP addition relative to control. Type of data set: functional.
The subject of data set [14] is Mus musculus. Put plainly: Antiplatelet activity against ADP-induced C57BL/6J mouse platelet aggregation assessed as reduction in P-selectin surface levels at 100 mg/kg, po measured after 2 weeks by flow cytometry analysis. Type of data set: functional, organism-based. On the technique in general: A flow cytometer gives signals particle by particle.
The nature of data set [15]: Binding affinity to sensorchip-immobilized PI3K (unknown origin) by surface plasmon resonance analysis. Further details: species or system Homo sapiens.
Data set [16] can be described thus: Metabolic stability in CD-1 mouse liver microsomes assessed as liver intrinsic clearance at 1 uM incubated upto 60 min in presence of NADPH by LC-MS/MS analysis. Type of data set: ADME, Microsome. The note with it: 1 h.
Data set [17] deals with Platelet. Put plainly: Inhibition of ADP-induced Akt activation in C57BL/6J mouse platelet assessed as reduction of AKT phosphorylation at Ser473 by western blot analysis. The format is cell-based.
Data set [18] relates to Platelet. Put plainly: Antiplatelet activity against ADP-induced C57BL/6J mouse platelet aggregation assessed as reduction on platelet aggregation at 2.5 to 10 uM preincubated for 10 mins followed by ADP addition. The format is functional, cell-based. As to conditions: dose 2.5-10 µM, DDE = dose-dependent effect.
Data set [19] is described as follows: Acute toxicity in Kunming mouse assessed as effect on glutamic oxalacetic transaminase at 250 to 1000 mg/kg, po measured after 14 days. As to conditions: in vivo, 336 h, dose 250-1000 mg/kg, time 14 day. The format is organism-based.
Data set [20] can be described thus: Acute toxicity in Kunming mouse assessed as effect on glutamic pyruvic transaminase at 250 to 1000 mg/kg, po measured after 14 days. Type of data set: organism-based. As to conditions: in vivo, 336 h, dose 250-1000 mg/kg, time 14 day.
Data set [21] in a line: Metabolic stability in Sprague-Dawley rat liver microsomes assessed as compound remaining at 1 uM measured after 60 mins in presence of NADPH by LC-MS/MS analysis. The format is ADME, Microsome. The note with it: read-out: Stability.
Data set [22] can be described thus: Metabolic stability in CD-1 mouse liver microsomes assessed as compound remaining at 1 uM measured after 60 mins in presence of NADPH by LC-MS/MS analysis. Type of data set: ADME, Microsome. As to conditions: read-out: Stability.
Data set [23] concerns Lung. Put plainly: Antithrombotic activity in BALB/c mouse model of carrageenan-induced thrombus formation assessed as reduced thrombus formation in lung at 100 mg/kg, iv measured after 14 days by H and E staining based assay. Type of data set: functional, organism-based. As to conditions: time 14.0 day.
The test system of data set [24] is Platelet. Put plainly: Antiplatelet activity against ADP-induced C57BL/6J mouse platelet aggregation assessed as reduction in P-selectin surface levels by measuring increase median fluorescence intensities at 10 uM incubated for 10 min by flow cytometry analysis. The format is functional, cell-based.
The nature of data set [25]: Metabolic stability in CD-1 mouse liver microsomes assessed as half life at 1 uM incubated upto 60 min in presence of NADPH by LC-MS/MS analysis. Type of data set: ADME, Microsome.
The nature of data set [26]: Metabolic stability in Sprague-Dawley rat liver microsomes assessed as half life at 1 uM incubated upto 60 min in presence of NADPH by LC-MS/MS analysis. The format is ADME, Microsome.
Data set [27] can be described thus: Metabolic stability in human liver microsomes assessed as half life at 1 uM incubated upto 60 min in presence of NADPH by LC-MS/MS analysis. Type of data set: ADME, Microsome.
The test system of data set [28] is Platelet. Put plainly: Antiplatelet activity against ADP-induced C57BL/6J mouse platelet aggregation assessed as reduction in integrin alphaIIbbeta3 surface levels by measuring increase median fluorescence intensities at 10 uM incubated for 10 min by flow cytometry analysis. Type of data set: functional, cell-based.
A short description of data set [29]: Cytotoxicity against human HUVEC cells assessed as cell vaibility at 100 uM by MTS assay. Type of data set: toxicity, cell-based. The note with it: read-out: Activity.
In data set [30] the test system is Mus musculus. Put plainly: Antithrombotic activity in BALB/c mouse model of carrageenan-induced thrombus formation assessed as reduced serum P-selectin level at 100 mg/kg, iv measured after 14 days by ELISA. As to conditions: time 14.0 day. Type of data set: functional, organism-based.
For data set [31], the system named is Mus musculus. Put plainly: Antiplatelet activity against ADP-induced C57BL/6J mouse platelet aggregation assessed as reduction in integrin alphaIIbbeta3 surface level at 100 mg/kg, po measured after 2 weeks by flow cytometry analysis. Type of data set: functional, organism-based.
The nature of data set [32]: Metabolic stability in Sprague-Dawley rat liver microsomes assessed as liver intrinsic clearance at 1 uM incubated upto 60 min in presence of NADPH by LC-MS/MS analysis. The format is ADME, Microsome. As to conditions: 1 h.
The subject of data set [33] is Platelet. Put plainly: Inhibition of ADP-induced Akt activation in C57BL/6J mouse platelet assessed as reduction of AKT phosphorylation at Ser473 at 0.5 to 20 uM by western blot analysis. The format is cell-based. The note with it: dose 0.5-20 µM, DDE = dose-dependent effect.
Data set [34] in a line: Acute toxicity in Kunming mouse assessed as effect on blood urea nitrogen at 250 to 1000 mg/kg, po measured after 14 days. Type of data set: organism-based. The note with it: in vivo, 336 h, dose 250-1000 mg/kg, time 14 day.
Data set [35] relates to Mus musculus. Put plainly: Antiplatelet activity against ADP-induced C57BL/6J mouse platelet aggregation assessed as inhibition of platelet aggregation at 100 mg/kg, po measured after 2 weeks. The format is functional, organism-based.
In data set [36] the test system is Mus musculus. Put plainly: Antiplatelet activity against ADP-induced C57BL/6J mouse platelet aggregation assessed as reduction in P-selectin surface levels at 20 mg/kg, po measured after 2 weeks by flow cytometry analysis. Type of data set: functional, organism-based.
In data set [37] the test system is Lung. Put plainly: Antithrombotic activity in BALB/c mouse model of carrageenan-induced thrombus formation assessed as reduced thrombus formation in lung at 20 mg/kg, iv measured after 14 days by H and E staining based assay. The format is functional, organism-based. As to conditions: time 14.0 day.
Data set [38] concerns Mus musculus. Put plainly: Antiplatelet activity against ADP-induced C57BL/6J mouse platelet aggregation assessed as reduction in integrin alphaIIbbeta3 surface level at 20 mg/kg, po measured after 2 weeks by flow cytometry analysis. The format is functional, organism-based.
The test system of data set [39] is Platelet. Put plainly: Inhibition of ADP-induced Akt activation in C57BL/6J mouse platelets assessed as reduction in phosphorylation Akt level at Ser473 at 20 mg/kg, po measured after 2 weeks by western blot analysis. The format is organism-based.
The subject of data set [40] is Mus musculus. Put plainly: Antiplatelet activity against ADP-induced C57BL/6J mouse platelet aggregation assessed as inhibition of platelet aggregation at 20 mg/kg, po measured after 2 weeks. Type of data set: functional, organism-based.
Data set [41] has as its system Mus musculus. Put plainly: Antithrombotic activity in BALB/c mouse model of carrageenan-induced thrombus formation assessed as inhibition of thrombosis rate in tail at 20 mg/kg, iv measured after 14 days. The format is functional, organism-based. As to conditions: time 14.0 day.
The subject of data set [42] is Mus musculus. Put plainly: Antithrombotic activity in BALB/c mouse model of carrageenan-induced thrombus formation assessed as reduced serum P-selectin level at 20 mg/kg, iv measured after 14 days by ELISA. The format is functional, organism-based. The note with it: time 14.0 day.

Calls of active or inactive are those of the source. No cut-off for these calls is given here.

The term LD50 denotes the dose expected to kill half of the subjects tested. In general, Kd refers to the constant that tells how readily two partners part at equilibrium. Broadly, the half-life is how long it takes for the measured level to halve. With `CCCOc1c(OC)ccc2cc3[n+](cc12)CCc1cc(OC)c(OC)cc1-3.[Br-]`, the values for the microsomal CLint at 1 µM in data set [1], in data set [4] and in data set [10] were below 9.6 µL/min/mg, 31 µL/min/mg and below 9.6 µL/min/mg, respectively. For the same compound, the inhibition entry in the data set on Platelet [2], with Mus musculus [7], in the data set on Mus musculus [12] and in the data set on Platelet [17] was “Active” in each case. Further, the remaining at 1 h, 1 µM worked out at 117% in [3], 79% in [21] and 39% in data set [22]. In addition, the CLH is below 8.6 mL/min/kg in [5], 123 mL/min/kg in [16] and below 17.3 mL/min/kg in data set [32]. Besides, the Activity in data set [6] is 37.8%; in data set [8], “Non-Toxic”; with Platelet [18], “Dde”; in data set [19] it was “Non-Toxic”; in data set [20] it was “Non-Toxic”; in data set [34], “Non-Toxic”. The LD50 at 336 h in data set [9] stood at 1000 mg/kg. For the same compound, the outcome with Platelet [11], in the data set on Mus musculus [14], in the data set on Lung [23], with Platelet [24], in the data set with Platelet [28] and in the data set with Mus musculus [30] was Active. In addition, the outcome with Mus musculus [31] and with Mus musculus [35] was Active. In data set [13], the “%max” value was found to be 26.9%. Also, the affinity in data set [15], expressed as Kd, was 25.5 µM. Further, the half-life at 1 µM in data set [25] is 0.745 h; in data set [26] it was above 2.42 h; in data set [27], above 2.42 h. Moreover, the viability at 100 µM in [29] turned out to be 90%. For the same compound, the inhibition entry in the data set on Platelet [33] is “Dde”.

For `CC(=O)Oc1ccccc1C(=O)O` [ASPIRIN], the outcome in the data set on Mus musculus [36], in the data set with Lung [37], in the data set on Mus musculus [38], in the data set with Mus musculus [40], with Mus musculus [41] and with Mus musculus [42] was Active. In addition, the “%max” value in data set [13] is reported as 26.4%. Further, the inhibition entry with Platelet [17] and in the data set with Platelet [39] was “Active” throughout.

For `COc1ccc2cc3[n+](cc2c1OC)CCc1cc2c(cc1-3)OCO2` [BERBERINE], the inhibition result with Platelet [2] and with Platelet [17] was “Active” throughout. Besides, the outcome with Mus musculus [7], with Mus musculus [14], in the data set with Lung [23], with Mus musculus [30], in the data set with Mus musculus [31] and in the data set on Mus musculus [35] was Active. For the same compound, in data set [13], the “%max” value amounted to 27.5%.
